Assays:
E. coli ATCC 25922 = assay: Broth microdilution MIC/MBC, glycosides with or without polymyxins; format: cell-based, Escherichia coli
K. pneumoniae CQ1942 = assay: Broth microdilution MIC, glycosides with or without polymyxins; format: cell-based, Klebsiella pneumoniae
E. coli NCTC 13846 = assay: Broth microdilution MIC/MBC, glycosides with or without polymyxins; format: cell-based, Escherichia coli; conditions: antibiotic alone; strain B
HEK-293 cells = system: HEK-293 cells; set-up: method as in PMID 30532748; conditions: polymyxin alone; cited from earlier work
A. baumannii CQ4322 = assay: Broth microdilution MIC/MBC, glycosides with or without polymyxins; format: cell-based, Acinetobacter baumannii
E. cloacae CQ1941 = assay: as above; format: cell-based
K. pneumoniae CQ4921 = assay: as above; format: cell-based, Klebsiella pneumoniae
K. pneumoniae CQ1947 = assay: Broth microdilution MIC, glycosides with or without polymyxins; format: cell-based, Klebsiella pneumoniae
Caco-2 cells = assay: Resazurin cell viability assay (cytotoxicity); format: cell-based, human; conditions: tested alone (no polymyxin adjuvant); 72 h
Experimental: (§1) Cytotoxicity of each compound alone or in combination with different polymyxin concentrations was evaluated through the resazurin cell viability assay[49] in human embryonic HEK-293T cells, as well as in human colon adenocarcinoma Caco-2 cells, after a 72-h long incubation period.
(§2) HEK-293T and Caco-2 cells were grown in RPMI 1640 medium (VWR) supplemented with 10% FBS (Biowest), 1% PenStrep (Sigma Aldrich), and 1% glutamine (Biowest) in a humidified incubator at 37 °C with a 5% CO2 atmosphere. Twice a week, the medium was aspirated, the cells were washed with DPBS (VWR), trypsinized with trypsin–EDTA solution (Biowest), and resuspended in fresh culture medium. The dose-dependent effects of each glycoside or glycoside-polymyxin combination were evaluated by the resazurin cell viability assay. Polymyxins (colistin sulfate and PMB sulfate for microbiological assays, European Pharmacopoeia Reference Standards, Sigma-Aldrich) were firstly dissolved in sterilized Mili-Q water to a stock concentration of 1 mg/mL, while glycosides were dissolved in DMSO to a stock concentration of 30 mM. 1.5 × 10^4 cells/well in 96.5 µL of medium were seeded onto 96-well plates and incubated at 37 °C for 24 h. For each compound, ten stock dilutions (with concentrations from 750 to 75 µM) were prepared in fresh medium immediately prior to incubation. 16 µL of each dilution were added to each well so that the final glycoside concentrations ranged from 100 to 10 µM in each row in a final assay volume of 120 µL. In addition, the previously prepared polymyxin stock solutions were diluted in fresh medium, affording new stocks of 8, 4, and 2 µg/mL. The same volume (7.5 µL/well) of PMB or colistin was then added to each row to achieve a final polymyxin concentration of 0.5, 0.25, and 0.125 µg/mL, respectively, regardless of the glycoside concentration. In assays without polymyxin, the same volume (7.5 µL/well) of medium was added. In all assays, the maximum DMSO concentration was 0.33%. After a 72-h incubation at 37 °C, 12 µL of a 0.15 mg/mL resazurin (Sigma-Aldrich) in sterilized Mili-Q water were added to each well, and the plates were left incubating for another 4 h at 37 °C. Resorufin was measured at 570/600 nm, and the percentage of resazurin reduction, corresponding to the cell viability percentage, was calculated according to Eq. (1)[60]. IC50 values were obtained by best fitting the dose-dependent inhibition curves using the Prism 9® software. The results were expressed as the mean ± SD of three independent replicates, with only data from analysis with R^2 > 0.90 being considered.1 %Cellviability=Abssample-Absmediumcontrol/Abscellcontrol-Absmediumcontrol×100

HEK-293T cells = assay: Resazurin cell viability assay (cytotoxicity); format: cell-based, human; conditions: tested alone (no polymyxin adjuvant); 72 h
Experimental: as §1, §2

P. aeruginosa CQ4924 = assay: Broth microdilution MIC, glycosides with or without polymyxins; format: cell-based, Pseudomonas aeruginosa

colistin [reference compound]
MIC (E. coli ATCC 25922; agent alone, no adjuvant (polymyxin conc. 0), strain A): 0.5 µg/mL
MICB (MIC of colistin individually) (E. coli ATCC 25922; alone): 0.5 µg/mL
MIC (antibiotic susceptibility profile) (E. coli ATCC 25922; antibiotic alone, strain A): 0.5 to 1 µg/mL
MIC (K. pneumoniae CQ1942; agent alone, no adjuvant (polymyxin conc. 0), strain E): 0.5 µg/mL
MICB (MIC of colistin individually) (K. pneumoniae CQ1942; alone): 0.5 µg/mL
MIC (antibiotic susceptibility profile) (K. pneumoniae CQ1942; antibiotic alone, strain E): 0.125 to 1 µg/mL
MIC (antibiotic susceptibility profile) (E. coli NCTC 13846): 4 µg/mL
IC50 (HEK-293 cells): > 1000 µg/mL
MIC (A. baumannii CQ4322; agent alone, no adjuvant (polymyxin conc. 0), strain G): 0.5 µg/mL
MICB (MIC of colistin individually) (A. baumannii CQ4322; alone): 0.5 µg/mL
MIC (antibiotic susceptibility profile) (A. baumannii CQ4322; antibiotic alone, strain G): 0.5 to 1 µg/mL
MIC (E. cloacae CQ1941; agent alone, no adjuvant (polymyxin conc. 0), strain D): 0.5 µg/mL
MICB (MIC of colistin individually) (E. cloacae CQ1941; alone): 0.5 µg/mL
MIC (antibiotic susceptibility profile) (E. cloacae CQ1941; antibiotic alone, strain D): 0.125 to 1 µg/mL
MIC (K. pneumoniae CQ4921; agent alone, no adjuvant (polymyxin conc. 0), strain C): 0.5 µg/mL
MICB (MIC of colistin individually) (K. pneumoniae CQ4921; alone): 0.5 µg/mL
MIC (antibiotic susceptibility profile) (K. pneumoniae CQ4921; antibiotic alone, strain C): 0.125 to 1 µg/mL
MIC (K. pneumoniae CQ1947; agent alone, no adjuvant (polymyxin conc. 0), strain F): 0.5 µg/mL
MICB (MIC of colistin individually) (K. pneumoniae CQ1947; alone): 0.5 µg/mL
MIC (antibiotic susceptibility profile) (K. pneumoniae CQ1947; antibiotic alone, strain F): 0.125 to 1 µg/mL
IC50 (Caco-2 cells): > 115 µg/mL
IC50 (HEK-293T cells): > 115 µg/mL
MIC (P. aeruginosa CQ4924; agent alone, no adjuvant (polymyxin conc. 0), strain H): 1 µg/mL
MICB (MIC of colistin individually) (P. aeruginosa CQ4924; alone): 1 µg/mL
MIC (antibiotic susceptibility profile) (P. aeruginosa CQ4924; antibiotic alone, strain H): 1 to 2 µg/mL

— PMC10817917, “Alkyl deoxyglycoside-polymyxin combinations against critical priority carbapenem-resistant gram-negative bacteria” (Scientific Reports, 2024)
